Assay [1] deals with Methicillin Resistant Staphylococcus aureus strain USA 200. Kind of assay: Minimum inhibitory concentration (MIC), CLSI broth micro-dilution, S. aureus. As to conditions: Staphylococcus aureus, MRSA / USA200; Table 6; MRSA USA 200; cation adjusted Mueller Hinton Broth + 0.002% Tween-80; 35° C., 22 hours. The class given is cell-based. The method, boiled down:
(§1)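 Colonies grown 20 h at 35° C on Trypticase Soy agar (MRSA) or Luria agar (E. coli) were suspended in cation-adjusted Mueller Hinton broth with 0.002% Tween-80. Suspensions were added at OD600 0.0005 to 10-point twofold compound dilutions, then incubated 22 h at 35° C.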
In general terms: Dilution methods test growth across graded concentrations, often in twofold steps.

Assay [2] deals with Escherichia coli ATCC 25922. Kind of assay: Minimum inhibitory concentration (MIC), CLSI broth micro-dilution, E. coli. Format: cell-based. As to conditions: Escherichia coli, ATCC25922, 22 h, Table 6, cation adjusted Mueller Hinton Broth + 0.002% Tween-80, 35° C. The method, boiled down: as §1

With `CCCCCCCc1ccc(C(=O)N[C@@H](CS)C(=O)N(C)[C@@H]2C(=O)N[C@@H](C)C(=O)N[C@H](C(=O)NCC#N)Cc3ccc(OCCN)c(c3)-c3cc2ccc3OCCN)c(C)c1` (racemic) [Compound 454, rac-(8S,11S,14S)-3,18-bis(2-aminoethoxy)-N-(cyanomethyl)-11-methyl-14-[methyl-[rac-(2R)-2-[(4-heptyl-2-methyl-benzoyl)amino]-3-sulfanyl-propanoyl]amino]-10,13-dioxo-9,12-diazatricyclo[13.3.1.12,6]icosa-1(18),2(20),3,5,15(19),16-hexaene-8-carboxamide], the MIC in assay [1] is 0.55 µM; in assay [2], 4.4 µM.
Turning to `Cc1cc(-c2ccc(C(C)(C)C)cc2)nc(N)c1C(=O)N[C@@H](CCN)C(=O)N(C)[C@@H]1C(=O)N[C@@H](C)C(=O)N[C@H](C(=O)NCC#N)Cc2ccc(OCCN)c(c2)-c2cc1ccc2OCCN` (racemic) [Compound 414, rac-(8S,11S,14S)-3,18-bis(2-aminoethoxy)-N-(cyanomethyl)-11-methyl-14-[methyl-[rac-(2S)-4-amino-2-[[2-amino-6-(4-tert-butylphenyl)-4-methyl-pyridine-3-carbonyl]amino]butanoyl]amino]-10,13-dioxo-9,12-diazatricyclo[13.3.1.12,6]icosa-1(18),2(20),3,5,15(19),16-hexaene-8-carboxamide], the MIC in assay [1] was determined as 0.016 µM; in assay [2] it was 0.25 µM.
For `CCCCc1ccc(-c2ncc(C(=O)N[C@@H](CCN)C(=O)N(C)[C@@H]3C(=O)N[C@@H](C)C(=O)N[C@H](C(=O)NCC#N)Cc4ccc(OCCN)c(c4)-c4cc3ccc4OCCN)c(C)n2)c(C)c1` (racemic) [Compound 223, rac-(8S,11S,14S)-3,18-bis(2-aminoethoxy)-N-(cyanomethyl)-11-methyl-14-[methyl-[rac-(2S)-4-amino-2-[[2-(4-butyl-2-methyl-phenyl)-4-methyl-pyrimidine-5-carbonyl]amino]butanoyl]amino]-10,13-dioxo-9,12-diazatricyclo[13.3.1.12,6]icosa-1(18),2(20),3,5,15(19),16-hexaene-8-carboxamide], the MIC came out at 0.016 µM in assay [1] and 0.26 µM in assay [2].
For `CCCCCCc1ccc(C(=O)N[C@@H](CCN)C(=O)N(CCN)[C@@H]2C(=O)N[C@@H](C)C(=O)N[C@H](C(=O)NCC#N)Cc3ccc(O)c(c3)-c3cc2ccc3O)c(C)c1` (racemic) [Compound 474, rac-(8S,11S,14S)-14-[2-aminoethyl-[rac-(2S)-4-amino-2-[(4-hexyl-2-methyl-benzoyl)amino]butanoyl]amino]-N-(cyanomethyl)-3,18-dihydroxy-11-methyl-10,13-dioxo-9,12-diazatricyclo[13.3.1.12,6]icosa-1(18),2(20),3,5,15(19),16-hexaene-8-carboxamide], in that order: 0.11 µM and 4.8 µM.
Consider `Cc1nc(-c2ccc3c(c2)CCC32CC2)nc(C)c1C(=O)N[C@@H](CCN)C(=O)N(C)[C@@H]1C(=O)N[C@@H](C)C(=O)N[C@H](C(=O)NCC#N)Cc2ccc(OCCN)c(c2)-c2cc1ccc2OCCN` (racemic) [Compound 284, rac-(8S,11S,14S)-3,18-bis(2-aminoethoxy)-N-(cyanomethyl)-11-methyl-14-[methyl-[rac-(2S)-4-amino-2-[(4,6-dimethyl-2-spiro[cyclopropane-1,1′-indane]-5′-yl-pyrimidine-5-carbonyl)amino]butanoyl]amino]-10,13-dioxo-9,12-diazatricyclo[13.3.1.12,6]icosa-1(18),2(20),3,5,15(19),16-hexaene-8-carboxamide], for which the MIC in assay [1] is 0.016 µM; in assay [2], 0.13 µM.
For `Cc1nc(-c2ccc(OC3C[C@H]4CCCC[C@H]4C3)cc2)nc(C)c1C(=O)N[C@@H](CCN)C(=O)N(C)[C@@H]1C(=O)N[C@@H](C)C(=O)N[C@H](C(=O)NCC#N)Cc2ccc(OCCN)c(c2)-c2cc1ccc2OCCN` (mixture of isomers) [Compound 349, rac-(8S,11S,14S)-3,18-bis(2-aminoethoxy)-N-(cyanomethyl)-11-methyl-14-[methyl-[rac-(2S)-4-amino-2-[[4,6-dimethyl-2-[4-[[rac-(3aR,7aS)-2,3,3a,4,5,6,7,7a-octahydro-1H-inden-2-yl]oxy]phenyl]pyrimidine-5-carbonyl]amino]butanoyl]amino]-10,13-dioxo-9,12-diazatricyclo[13.3.1.12,6]icosa-1(18),2(20),3,5,15(19),16-hexaene-8-carboxamide], in that order: 0.023 µM and 0.094 µM.
As to `Cc1nc(-c2ccc(CC3CCCC3)cc2)nc(C)c1C(=O)N[C@@H](CCN)C(=O)N(C)[C@@H]1C(=O)N[C@@H](C)C(=O)N[C@H](C(=O)NCC#N)Cc2ccc(OCCN)c(c2)-c2cc1ccc2OCCN` (racemic) [Compound 275, rac-(8S,11S,14S)-3,18-bis(2-aminoethoxy)-N-(cyanomethyl)-11-methyl-14-[methyl-[rac-(2S)-4-amino-2-[[2-[4-(cyclopentylmethyl)phenyl]-4,6-dimethyl-pyrimidine-5-carbonyl]amino]butanoyl]amino]-10,13-dioxo-9,12-diazatricyclo[13.3.1.12,6]icosa-1(18),2(20),3,5,15(19),16-hexaene-8-carboxamide], the MIC in assay [1] was determined as 0.012 µM; in assay [2] it was 0.094 µM.
In the case of `CCc1nc(-c2ccc(C(C)(C)C)cc2)nc(C)c1C(=O)N[C@@H](CCN)C(=O)N(C)[C@@H]1C(=O)N[C@@H](C)C(=O)N[C@H](C(=O)NCC#N)Cc2ccc(OCCN)c(c2)-c2cc1ccc2OCCN` [Compound 485], the MIC came out at 0.023 µM in assay [1] and 0.5 µM in assay [2].
Regarding `CCCC#Cc1ccc(-c2ncc(C(=O)N[C@@H](CCN)C(=O)N(C)[C@@H]3C(=O)N[C@@H](C)C(=O)N[C@H](C(=O)NCC#N)Cc4ccc(OCCN)c(c4)-c4cc3ccc4OCCN)c(C)n2)cc1` (racemic) [Compound 227, rac-(8S,11S,14S)-3,18-bis(2-aminoethoxy)-N-(cyanomethyl)-11-methyl-14-[methyl-[rac-(2S)-4-amino-2-[[4-methyl-2-(4-pent-1-ynylphenyl)pyrimidine-5-carbonyl]amino]butanoyl]amino]-10,13-dioxo-9,12-diazatricyclo[13.3.1.12,6]icosa-1(18),2(20),3,5,15(19),16-hexaene-8-carboxamide], the MIC amounted to 0.017 µM in assay [1] and 0.077 µM in assay [2].
In the case of `CCCCc1ccc(C#Cc2nc(C)c(C(=O)N[C@@H](CCN)C(=O)N(C)[C@@H]3C(=O)N[C@@H](C)C(=O)N[C@H](C(=O)NCC#N)Cc4ccc(OCCN)c(c4)-c4cc3ccc4OCCN)c(C)n2)cc1` (racemic) [Compound 308, rac-(8S,11S,14S)-3,18-bis(2-aminoethoxy)-N-(cyanomethyl)-11-methyl-14-[methyl-[rac-(2S)-4-amino-2-[[2-[2-(4-butylphenyl)ethynyl]-4,6-dimethyl-pyrimidine-5-carbonyl]amino]butanoyl]amino]-10,13-dioxo-9,12-diazatricyclo[13.3.1.12,6]icosa-1(18),2(20),3,5,15(19),16-hexaene-8-carboxamide], the figures for the MIC in assay [1] and in assay [2] were 0.012 µM and 0.096 µM, respectively.

A word on the MIC: it is the least concentration at which growth counts as inhibited.

The values above are taken from patent US20260274892A1, “MACROCYCLIC BROAD SPECTRUM ANTIBIOTICS” (RQx Pharmaceuticals, Inc., priority 2017, published 2026).
